In PMC6429222, “The Oligomeric State of the Plasma Membrane H^+-ATPase from Kluyveromyces lactis” (Molecules, 2019):
“And” between values parts separate entries of the source, which are not always exact repeats. Identical values can stand only once. Values belong to the molecule of their own block, whether it stands above or below them.

Experiments:
[1] = target: T1, plasma membrane H^+-ATPase hexamer, free (small MAS, Peak 2) (Kluyveromyces lactis, UniProt P49380); assay: intrinsic Trp fluorescence quenching titration, Hill-type fit; assay type: binding
T1 construct: gene PMA1; Superose 6 Peak 2, mainly free hexamers with minor monomer, dimer, tetramer; monomer ~100 kDa; no tag
T1 sequence (P49380 1-899): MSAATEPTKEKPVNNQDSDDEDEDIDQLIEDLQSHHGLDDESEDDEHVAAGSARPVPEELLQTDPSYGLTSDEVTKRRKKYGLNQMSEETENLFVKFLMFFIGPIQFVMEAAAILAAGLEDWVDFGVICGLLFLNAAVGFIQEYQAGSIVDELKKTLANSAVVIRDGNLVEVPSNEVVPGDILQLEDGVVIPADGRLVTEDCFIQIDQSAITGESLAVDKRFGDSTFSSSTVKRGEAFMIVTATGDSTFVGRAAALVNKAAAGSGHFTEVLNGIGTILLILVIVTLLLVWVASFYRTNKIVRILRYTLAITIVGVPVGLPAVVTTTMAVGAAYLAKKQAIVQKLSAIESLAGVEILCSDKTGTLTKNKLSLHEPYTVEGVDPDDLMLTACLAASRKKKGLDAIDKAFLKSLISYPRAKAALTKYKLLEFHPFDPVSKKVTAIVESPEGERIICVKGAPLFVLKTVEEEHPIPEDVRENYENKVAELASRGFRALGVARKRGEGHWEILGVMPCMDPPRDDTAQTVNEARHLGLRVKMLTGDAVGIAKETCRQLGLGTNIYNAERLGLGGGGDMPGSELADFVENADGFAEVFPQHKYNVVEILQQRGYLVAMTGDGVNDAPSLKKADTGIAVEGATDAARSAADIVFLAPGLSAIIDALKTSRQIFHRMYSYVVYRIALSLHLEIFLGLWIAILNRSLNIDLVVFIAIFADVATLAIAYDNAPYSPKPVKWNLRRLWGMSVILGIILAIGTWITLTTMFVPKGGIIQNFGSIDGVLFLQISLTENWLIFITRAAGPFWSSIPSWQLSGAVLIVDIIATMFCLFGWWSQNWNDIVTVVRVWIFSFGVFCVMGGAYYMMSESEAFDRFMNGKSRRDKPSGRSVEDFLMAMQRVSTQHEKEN

[2] = target: T2, plasma membrane H^+-ATPase hexamer, aggregated (large MAS, Peak 1) (Kluyveromyces lactis, UniProt P49380); assay: as above; assay type: binding
T2 construct: gene PMA1; Superose 6 Peak 1, aggregated hexamers; monomer ~100 kDa; no tag
T2 sequence (P49380 1-899): T1 sequence (P49380 1-899)

purified protein = substrate: Nc1ncnc2c1ncn2[C@@H]1O[C@H](COP(=O)(O)OP(=O)(O)OP(=O)(O)O)[C@@H](O)[C@H]1O; assay: purified protein; assay type: biochemical, Kluyveromyces lactis; details: 25 °C, cooperative
[3] = target: the molecule itself; assay: native gel or EMSA; BN-PAGE of SEC Peak 1 fractions (23-26); 4-15% gradient gel with 0.1 M trehalose; sample buffer 25 mM imidazole, 0.3 M trehalose, 0.25% DDM, 0.025% Coomassie blue, pH 7.0; 4 °C; silver stain
[4] = target: the molecule itself; assay: native gel or EMSA; BN-PAGE of SEC Peak 2 fractions (33-37); 4-15% gradient gel with 0.1 M trehalose; sample buffer 25 mM imidazole, 0.3 M trehalose, 0.25% DDM, 0.025% Coomassie blue, pH 7.0; 4 °C; silver stain

Kd [1]: 190 ± 13.9 µM | Kd [2]: 136 ± 7.8 µM
Molecule: Nc1ncnc2c1ncn2[C@@H]1O[C@H](COP(=O)(O)OP(=O)(O)O)[C@@H](O)[C@H]1O [ADP]

Kd [1]: 106 ± 12.6 µM | Kd [2]: 73.3 ± 5.8 µM
Molecule: Nc1ncnc2c1ncn2[C@@H]1O[C@H](COP(=O)(O)OP(=O)(O)CP(=O)(O)O)[C@@H](O)[C@H]1O [AMP-PCP]

B1: plasma membrane H^+-ATPase hexamer, aggregated (large MAS, Peak 1) (Kluyveromyces lactis NRRL Y-1140) (protein)
chain: T1 sequence (P49380 1-899)
notes: Superose 6 Peak 1, aggregated hexamers; monomer ~100 kDa; no tag
K0.5 (purified protein; Hill n = 1.98 ± 0.21): 329 ± 19 µM

B2: plasma membrane H^+-ATPase from Kluyveromyces lactis (enzyme, UniProt P49380 1-899, looked up)
chain: T1 sequence (P49380 1-899)
notes: plasma membrane H^+-ATPase (Pma1) of Kluyveromyces lactis, endogenous enzyme; monomer band of ~100 kDa on SDS-PAGE; also called Pma1; H^+-ATPase hexamer; source: also in isolated plasma membranes treated with DDM
stoichiometry N [3]: 6 | stoichiometry N [4]: 2 and 4

B3: plasma membrane H^+-ATPase hexamer, free (small MAS, Peak 2) (Kluyveromyces lactis NRRL Y-1140) (protein)
chain: T1 sequence (P49380 1-899)
notes: Superose 6 Peak 2, mainly free hexamers with minor monomer, dimer, tetramer; monomer ~100 kDa; no tag
K0.5 (purified protein; Hill n = 1.82 ± 0.22): 364 ± 28 µM
